PubChem BioAssay AID1963435 (Molecular Pharmacology Branch, DTP, NCI, 2024)

Tested on: PANC-1 complex spheroid growth, percent test/control
Test: Anticancer human tumor PANC-1 cell line growth inhibition [Asc];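 further: spheroids exposed to agents for 7 days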;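 on viability, T/C: percent viability relative to DMSO vehicle wells taken as 100%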
Conditions: for IC50: curve of first compound; for viability, T/C: stronger effect = lower value
How it was run: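 Concentration series start at each agent's clinical Cmax, or at 10 microM when none is established, and drop in half-log steps; agents are applied alone or together to complex spheroids built with HUVEC and hMSC.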

[1] = second compound 0.00316 µM, first compound 0.0316 µM
[2] = second compound 0.00316 µM, first compound 0.1 µM
[3] = second compound 0.00316 µM, first compound 0.316 µM
[4] = second compound 0.00316 µM, first compound 1 µM
[5] = second compound 0.01 µM, first compound 0.0316 µM
[6] = second compound 0.01 µM, first compound 0.1 µM
[7] = second compound 0.01 µM, first compound 0.316 µM
[8] = second compound 0.01 µM, first compound 1 µM
[9] = second compound 0.0316 µM, first compound 0.0316 µM
[10] = second compound 0.0316 µM, first compound 0.1 µM
[11] = second compound 0.0316 µM, first compound 0.316 µM
[12] = second compound 0.0316 µM, first compound 1 µM
[13] = second compound 0.1 µM, first compound 0.0316 µM
[14] = second compound 0.1 µM, first compound 0.1 µM
[15] = second compound 0.1 µM, first compound 0.316 µM
[16] = second compound 0.1 µM, first compound 1 µM
[17] = second compound 0.316 µM, first compound 0.0316 µM
[18] = second compound 0.316 µM, first compound 0.1 µM
[19] = second compound 0.316 µM, first compound 0.316 µM
[20] = second compound 0.316 µM, first compound 1 µM
[21] = second compound 1 µM, first compound 0.0316 µM
[22] = second compound 1 µM, first compound 0.1 µM
[23] = second compound 1 µM, first compound 0.316 µM
[24] = second compound 1 µM, first compound 1 µM
[25] = second compound 0.00316 µM, first compound 0.00316 µM
[26] = second compound 0.00316 µM, first compound 0.01 µM
[27] = second compound 0.01 µM, first compound 0.00316 µM
[28] = second compound 0.01 µM, first compound 0.01 µM
[29] = second compound 0.0316 µM, first compound 0.00316 µM
[30] = second compound 0.0316 µM, first compound 0.01 µM
[31] = second compound 0.1 µM, first compound 0.00316 µM
[32] = second compound 0.1 µM, first compound 0.01 µM
[33] = second compound 0.316 µM, first compound 0.00316 µM
[34] = second compound 0.316 µM, first compound 0.01 µM
[35] = second compound 1 µM, first compound 0.00316 µM
[36] = second compound 1 µM, first compound 0.01 µM

C=CC(=O)N1CCN(c2nc(=O)n(-c3c(C)ccnc3C(C)C)c3nc(-c4c(O)cccc4F)c(F)cc23)C(C)C1 (stereo unspecified) + CNC(C)C(=O)NC1CN(S(=O)(=O)c2cccc(S(=O)(=O)N3CCC4CCC(C(=O)NC(c5ccccc5)c5ccccc5)N4C(=O)C(NC(=O)C(C)NC)C3)c2)CCC2CCC(C(=O)NC(c3ccccc3)c3ccccc3)N2C1=O
IC50 (second compound 0.00316 µM): > 10000 nM
IC50 (second compound 0.01 µM): > 10000 nM
IC50 (second compound 0.0316 µM): > 10000 nM
IC50 (second compound 0.1 µM): > 10000 nM
IC50 (second compound 0.316 µM): > 10000 nM
IC50 (second compound 1 µM): > 10000 nM
viability, T/C [1]: 103%
viability, T/C [2]: 88.3%
viability, T/C [3]: 103%
viability, T/C [4]: 92.3%
viability, T/C (second compound 0.00316 µM, first compound 3.16 µM): 118%
viability, T/C (second compound 0.00316 µM, first compound 10 µM): 97.5%
viability, T/C [5]: 100%
viability, T/C [6]: 92.8%
viability, T/C [7]: 102%
viability, T/C [8]: 97%
viability, T/C (second compound 0.01 µM, first compound 3.16 µM): 101%
viability, T/C (second compound 0.01 µM, first compound 10 µM): 95%
viability, T/C [9]: 91.2%
viability, T/C [10]: 94.1%
viability, T/C [11]: 102%
viability, T/C [12]: 95.8%
viability, T/C (second compound 0.0316 µM, first compound 3.16 µM): 105%
viability, T/C (second compound 0.0316 µM, first compound 10 µM): 93.3%
viability, T/C [13]: 102%
viability, T/C [14]: 96.2%
viability, T/C [15]: 100%
viability, T/C [16]: 100%
viability, T/C (second compound 0.1 µM, first compound 3.16 µM): 89.7%
viability, T/C (second compound 0.1 µM, first compound 10 µM): 88.6%
viability, T/C [17]: 98.2%
viability, T/C [18]: 92.3%
viability, T/C [19]: 112%
viability, T/C [20]: 96.4%
viability, T/C (second compound 0.316 µM, first compound 3.16 µM): 86.2%
viability, T/C (second compound 0.316 µM, first compound 10 µM): 94.2%
viability, T/C [21]: 94.7%
viability, T/C [22]: 91.2%
viability, T/C [23]: 109%
viability, T/C [24]: 94.2%
viability, T/C (second compound 1 µM, first compound 3.16 µM): 97.1%
viability, T/C (second compound 1 µM, first compound 10 µM): 96.3%

COc1c(OCCCN2CCOCC2)ccc2c3n(c(=NC(=O)c4cnc(N)nc4)nc12)CCN3 + CNC(C)C(=O)NC1CN(S(=O)(=O)c2cccc(S(=O)(=O)N3CCC4CCC(C(=O)NC(c5ccccc5)c5ccccc5)N4C(=O)C(NC(=O)C(C)NC)C3)c2)CCC2CCC(C(=O)NC(c3ccccc3)c3ccccc3)N2C1=O
IC50 (second compound 0.00316 µM): 289 nM
IC50 (second compound 0.01 µM): 225 nM
IC50 (second compound 0.0316 µM): 199 nM
IC50 (second compound 0.1 µM): 157 nM
IC50 (second compound 0.316 µM): 159 nM
IC50 (second compound 1 µM): 191 nM
viability, T/C [25]: 107%
viability, T/C [26]: 92.4%
viability, T/C [1]: 87.6%
viability, T/C [2]: 74.8%
viability, T/C [3]: 45.6%
viability, T/C [4]: 18.7%
viability, T/C [27]: 96.1%
viability, T/C [28]: 95.5%
viability, T/C [5]: 94.2%
viability, T/C [6]: 65.7%
viability, T/C [7]: 44%
viability, T/C [8]: 15.6%
viability, T/C [29]: 95.2%
viability, T/C [30]: 99.1%
viability, T/C [9]: 89.9%
viability, T/C [10]: 62.8%
viability, T/C [11]: 41.3%
viability, T/C [12]: 13.2%
viability, T/C [31]: 103%
viability, T/C [32]: 90.7%
viability, T/C [13]: 82.1%
viability, T/C [14]: 56.6%
viability, T/C [15]: 36.8%
viability, T/C [16]: 12.3%
viability, T/C [33]: 98.7%
viability, T/C [34]: 91.7%
viability, T/C [17]: 85.2%
viability, T/C [18]: 56.9%
viability, T/C [19]: 36.8%
viability, T/C [20]: 14.6%
viability, T/C [35]: 86.9%
viability, T/C [36]: 96.9%
viability, T/C [21]: 83.1%
viability, T/C [22]: 66.4%
viability, T/C [23]: 37.4%
viability, T/C [24]: 15.5%

NC1CCC(NC2CC2c2ccccc2)CC1 (stereo unspecified) + CNC(C)C(=O)NC1CN(S(=O)(=O)c2cccc(S(=O)(=O)N3CCC4CCC(C(=O)NC(c5ccccc5)c5ccccc5)N4C(=O)C(NC(=O)C(C)NC)C3)c2)CCC2CCC(C(=O)NC(c3ccccc3)c3ccccc3)N2C1=O
IC50 (second compound 0.00316 µM): > 100 nM
IC50 (second compound 0.01 µM): > 100 nM
IC50 (second compound 0.0316 µM): > 100 nM
IC50 (second compound 0.1 µM): > 100 nM
IC50 (second compound 0.316 µM): > 100 nM
IC50 (second compound 1 µM): > 100 nM
viability, T/C (second compound 0.00316 µM, first compound 0.000316 µM): 99.3%
viability, T/C (second compound 0.00316 µM, first compound 0.001 µM): 94%
viability, T/C [25]: 90%
viability, T/C [26]: 87.5%
viability, T/C [1]: 99.4%
viability, T/C [2]: 87.8%
viability, T/C (second compound 0.01 µM, first compound 0.000316 µM): 95%
viability, T/C (second compound 0.01 µM, first compound 0.001 µM): 95.9%
viability, T/C [27]: 88.5%
viability, T/C [28]: 85%
viability, T/C [5]: 93.5%
viability, T/C [6]: 94.4%
viability, T/C (second compound 0.0316 µM, first compound 0.000316 µM): 95%
viability, T/C (second compound 0.0316 µM, first compound 0.001 µM): 96.8%
viability, T/C [29]: 85.7%
viability, T/C [30]: 86.5%
viability, T/C [9]: 84.5%
viability, T/C [10]: 93.4%
viability, T/C (second compound 0.1 µM, first compound 0.000316 µM): 98.9%
viability, T/C (second compound 0.1 µM, first compound 0.001 µM): 102%
viability, T/C [31]: 96.5%
viability, T/C [32]: 93%
viability, T/C [13]: 92.8%
viability, T/C [14]: 87.8%
viability, T/C (second compound 0.316 µM, first compound 0.000316 µM): 102%
viability, T/C (second compound 0.316 µM, first compound 0.001 µM): 97.9%
viability, T/C [33]: 108%
viability, T/C [34]: 84.9%
viability, T/C [17]: 97.8%
viability, T/C [18]: 93.5%
viability, T/C (second compound 1 µM, first compound 0.000316 µM): 94.6%
viability, T/C (second compound 1 µM, first compound 0.001 µM): 76.7%
viability, T/C [35]: 99.3%
viability, T/C [36]: 85.9%
viability, T/C [21]: 90.7%
viability, T/C [22]: 92.3%
